Test results taken from US9314458B2, “Topical use of ingenol-3-angelate or a salt thereof to treat skin cancer” (LEO Laboratories Limited, priority 2000, dated 2016).

Columns and labels:
[1] = tested on: peripheral blood mononuclear cells; assay: Phagocytosis with fluorescent beads; type: cell-based; settings: 30 min, whole heparinized blood
Protocol: Phagocytosis by peripheral blood mononuclear cells (PBMCs) was assayed (Steinkamp et al., 1982) using 1 μm Fluoresbrite™ yellow-green fluorescent latex spheres (Polysciences, Inc., Warrington, Pa.). A sample of whole, heparinized blood was treated with drug and 5×10E7 fluorescent latex beads in 10 μL of PBS added per mL of suspension. Cells were incubated and maintained in suspension for 30 min by means of a shaker platform at 37° C. The stimulated and non-stimulated samples were then lysed to isolate PBMCs. The PBMCs were run on the flow cytometer measuring FITC (excitation at 488 nm, emission at 525±20 nm), gated for fluorescence (phagocytosed spheres) and light scatter (cell size).

[2] = target: T1, PKCζ (Homo sapiens, UniProt Q05513); assay: EGFP-PKC translocation in HeLa cells (PKCζ); type: cell-based; settings: one hour, same concentrations
T1 construct: host or cells: HeLa cells
T1 sequence (Q05513 1-592): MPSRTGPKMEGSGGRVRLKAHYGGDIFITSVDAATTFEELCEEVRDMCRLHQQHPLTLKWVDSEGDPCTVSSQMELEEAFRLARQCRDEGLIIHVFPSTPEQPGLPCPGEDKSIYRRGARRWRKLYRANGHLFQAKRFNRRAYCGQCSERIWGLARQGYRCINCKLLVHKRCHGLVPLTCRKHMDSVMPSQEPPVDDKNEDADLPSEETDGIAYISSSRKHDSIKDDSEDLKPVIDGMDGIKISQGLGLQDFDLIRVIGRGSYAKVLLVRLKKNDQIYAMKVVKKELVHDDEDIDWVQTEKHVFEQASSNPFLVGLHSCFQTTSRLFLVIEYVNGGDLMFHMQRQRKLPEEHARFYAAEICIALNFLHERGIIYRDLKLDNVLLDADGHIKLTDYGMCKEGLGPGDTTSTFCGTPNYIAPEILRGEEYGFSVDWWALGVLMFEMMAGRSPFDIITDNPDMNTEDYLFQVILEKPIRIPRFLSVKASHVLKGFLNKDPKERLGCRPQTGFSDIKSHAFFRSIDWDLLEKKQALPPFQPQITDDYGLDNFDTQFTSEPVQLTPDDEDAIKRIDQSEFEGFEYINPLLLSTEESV
Protocol: (§1) Five EGFP-PKC isoforms (Clontech) were available for this experiment, enabling the screening of the three predominant PKC families (i.e. classical, novel and atypical PKCs). The members of the various PKC families are α, β, and γ (classical), θ (novel) and ζ (atypical).
(§2) HeLa cells were plated out in a 24-well plate containing coverslips and transfected with PKC isoforms fused to EGFP, using a commercially available effectine-transfection kit (QIAGEN, Pty. Ltd.). Cells were exposed to the transfection reagents for 16-24 hr. Subsequently, transfected cells were treated for one hour with TPA (100 ng/mL), bryostatin-1 (5 pg/mL), PEP003 (2.25 μg/mL; 5 μM) or PEP005 ([…]) 1.5 μM). Following treatment, cells were fixed on coverslips and mounted on glass slides. The slides were subsequently examined visually by fluorescence microscopy, photographed, and over 150 cells were counted/treatment/PKC isoform. Counted cells were classified according to the localisation of the PKC-EGFP fluorescence as either cytoplasmic or plasma membrane using ImagePro™ 4.1 (FIG. 5). […] The number of these cells was also counted. Results are presented as an average and standard deviation of percentages of cells (Table 1).

[3] = tested on: Peripheral blood mononuclear cells (granulocytes, monocytes, lymphocytes); assay: Respiratory burst, DCFH-DA H2O2 flow cytometry; type: cell-based; settings: bisindolylmaleimide 10 ng/mL or 1 ng/mL
Protocol: Experiments were also carried out using 2′,7′-dichlorofluorescein diacetate (DCFH-DA) to measure the production of H2O2. (J P Robinson, Oxidative burst methods, in Handbook of Flow Cytometry Methods, Wiley-Liss Inc, pp 147-149, 1993). H2O2 oxidizes the non-fluorescent probe (DCFH-DA) to a fluorescent probe that can then be detected by a flow cytometer. Peripheral blood mononuclear cells (PBMC) were extracted from a donor blood sample by lysis of heparinized blood and used in a suspension of 1×10^6/mL of phosphate buffer, pH 7.3. The cells were then incubated with DCFH-DA (1 μL/mL of 20 mM stock) for 15 minutes to allow it to be taken up and trapped by hydrolysis with cellular esterases. The cells were then stimulated by test compounds for 15 min at 37° C. Controls included in the experiment were unloaded control (cells with no DCFH-DA) and loaded control (cells with DCFH-DA, but no stimulation). These were used to monitor the non-specific oxidation of unstimulated cells. The cells were then analyzed on the flow cytometer (excitation at 488 nm, emission at 525±20 nm), gating each sample for individual cell populations—granulocytes, monocytes and lymphocytes (Table 3).

[4] = tested on: Human peripheral blood mononuclear cells; assay: Phagocytic activity, nitroblue tetrazolium uptake; type: cell-based; settings: 100 ng/mL, 20 min; controls <2%
Protocol: Human peripheral blood mononuclear cells (PBMC) prepared by standard Ficoll separation comprise approximately 5% monocytes. PBMC were incubated with dihydroethidium, a reduced form of the dye which becomes fluorescent when oxidized by a respiratory burst, then treated in 10% FCS-RPMI 1640 at 37° C. for 15 min with crude E. peplus extract diluted 1/1000 or 100 ng/mL TPA and analyzed by flow cytometry using conventional methods (Handbook of Flow Cytometry Methods, p. 151). The mean channel numbers for fluorescence were 618 (controls) and 818 (E. peplus extract diluted 1/1000). […] Phagocytic activity was determined by a conventional method (Hudson and Hay, Practical Immunology, 3rd edition, p. 74). […] The average of three fields gave figures of <2% (controls), 10% (TPA) and 8.7% (E. peplus sap) cells stained blue.

[5] = target: T2, PKCγ (Homo sapiens, UniProt P05129); assay: EGFP-PKC translocation in HeLa cells (PKCγ); type: cell-based; settings: one hour
T2 construct: host or cells: HeLa cells
Protocol: as §1, §2

[6] = tested on: rat brain PKC; assay: PKC kinase activity, PepTag non-radioactive protein kinase assay; type: biochemical; settings: PepTag gel; various dilutions of TPA; ether extract final dilution 1 in 5; crude sap and aqueous layer diluted 1/25
Protocol: The kinase activity of rat brain PKC (Promega) was determined using the Peptag™ Non-Radioactive Protein Kinase Kit (Promega). Using agarose gel electrophoresis the technique visualises the opposing electrostatic charge of a fluorescently labeled peptide ([sequence]) compared to the phosphorylated version of the same peptide.
The reaction mixture was separated by gel electrophoresis, showing migration of the unreacted substrate (a) to the anode (top), and the product (b), which is more negatively charged because of phosphorylation by PKC, moving towards the cathode (bottom).

[7] = tested on: HIV-1 LAI strain in U1 cells; assay: Activation of latent HIV from U1 cells (p24 ELISA); type: cell-based; settings: 20 hr culture
Source text: A latently HIV-1 infected cell line (U1), derived from the promonocytic cell line U937 after infection with HIV-1 LAI strain, was used in these experiments. In the absence of activation, no or little virus (measured as p24 production) is produced by the U1 cell line. Phorbol esters are known to activate virus production from these cells (Tobiume et al., 1998) and so TPA/PMA was used as a positive control in these experiments.
Supernatants were collected and viral replication monitored by determination of the amounts of HIV p24 gag protein in the culture supernatants by ELISA, using a NEN Life Science HIV-1 p24 ELISA kit. p24 values were calculated from OD values using a standard curve.

Structure (SMILES): CCCCCCCCCCCCCC(=O)O[C@@H]1[C@@H](C)[C@@]2(O)[C@@H](C=C(CO)C[C@]3(O)C(=O)C(C)=C[C@@H]23)C2C(C)(C)[C@@]21OC(C)=O (single isomer, unassigned) [TPA]
- phagocytosis of fluorescent latex spheres in PBMCs [1]: stimulate phagocytosis
- translocation of PKCζ [2]: fail to induce translocation
- respiratory burst with bisindolylmaleimide added [3]: blocked
- cells stained blue (NBT) [4]: 10%
- number of PKCγ transfected cells displaying Golgi-like fluorescence [5]: increase in the number of cells displaying Golgi-like fluorescence
- translocation of PKCγ from cytoplasm to plasma membrane ([5]; TPA 100 ng/mL, bryostatin-1 5 pg/mL, PEP003 2.25 μg/mL (5 μM), PEP005 670 μg/mL (1.5 μM)): translocated from the cytoplasm to the plasma membrane
- activation of PKC (FIG. 1) [6]: showed activation of PKC
- activation of HIV from U1 cells (p24 production) [7]: activated HIV from U1 cells
